≈ marks a conversion by molar mass, not a printed value. Read-outs that look alike come from different tables or passages of the source.
Experiments:
Type in all cases: cell-based
[1] = tested on: Klebsiella pneumoniae X68; test: In vitro antibacterial activity, standard agar-dilution assay
Escherichia coli TEM = test: as above
[2] = tested on: Staphylococcus aureus X400; test: microbe, parasite or virus in culture
[3] = tested on: Staphylococcus aureus V41; test: In vitro antibacterial activity, standard agar-dilution assay
[4] = tested on: Staphylococcus aureus X1.1; test: as above
[5] = tested on: Haemophilus influenzae 76; test: as above
[6] = tested on: Staphylococcus epidermidis 222; test: as above
[7] = tested on: Staphylococcus epidermidis EPI1; test: as above
[8] = tested on: Streptococcus pyogenes C203; test: as above
[9] = tested on: Klebsiella pneumoniae X26; test: as above
[10] = tested on: Streptococcus pneumoniae Park 1; test: as above; details: PARK1
[11] = tested on: Klebsiella pneumoniae KAE; test: as above
[12] = tested on: Staphylococcus aureus S13E; test: microbe, parasite or virus in culture
Salmonella sp. X514 = test: In vitro antibacterial activity, standard agar-dilution assay
Proteus morganii PR15 = test: as above; details: Morganella morganii
[13] = tested on: Streptococcus faecium ATCC 9790; test: as above; details: Enterococcus faecium, ATCC9790
Candida albicans = test: In vitro antifungal activity, standard disc-plate assay
[14] = tested on: Streptococcus sp group D 2041; test: In vitro antibacterial activity, standard agar-dilution assay; details: GROUPD2041
[15] = tested on: Trichophyton mentagrophytes; test: In vitro antifungal activity, standard disc-plate assay
Shigella sonnei N9 = test: In vitro antibacterial activity, standard agar-dilution assay
[16] = tested on: Acinetobacter calcoaceticus AC12; test: as above
Escherichia coli N10 = test: as above
Escherichia coli EC14 = test: as above
[17] = tested on: Haemophilus influenzae C.L.; test: as above
[18] = Klebsiella pneumoniae X68, agar dilution, read-out: MIC
[19] = Staphylococcus aureus V41, agar dilution, read-out: MIC
[20] = Staphylococcus aureus X1.1, agar dilution, read-out: MIC
[21] = Haemophilus influenzae 76, agar dilution, read-out: MIC
[22] = Staphylococcus epidermidis 222, agar dilution, read-out: MIC
[23] = Staphylococcus epidermidis EPI1, agar dilution, read-out: MIC
[24] = Streptococcus pyogenes C203, agar dilution, read-out: MIC
[25] = Klebsiella pneumoniae X26, agar dilution, read-out: MIC
[26] = Streptococcus pneumoniae Park 1, agar dilution, read-out: MIC
[27] = Klebsiella pneumoniae KAE, agar dilution, read-out: MIC
[28] = Salmonella sp. X514, agar dilution, read-out: MIC
[29] = Proteus morganii PR15, agar dilution, read-out: MIC
[30] = Streptococcus faecium ATCC 9790, agar dilution, read-out: MIC
[31] = disc-plate assay, read-out: MIC
[32] = Streptococcus sp group D 2041, agar dilution, read-out: MIC
[33] = Shigella sonnei N9, agar dilution, read-out: MIC
[34] = Acinetobacter calcoaceticus AC12, agar dilution, read-out: MIC
[35] = Escherichia coli N10, agar dilution, read-out: MIC
[36] = Escherichia coli EC14, agar dilution, read-out: MIC
[37] = Haemophilus influenzae C.L., agar dilution, read-out: MIC

SMILES: [C-]#[N+][C@@H]1[C@H](c2c[nH]c3ccccc23)[C@@H](C(=C)C)C[C@@H](Cl)[C@]1(C)C=C [Compound 5, Hapalindole E]
- MIC ([1]; Klebsiella pneumoniae, X68): > 64 mg/L
- MIC (Escherichia coli TEM): > 64 mg/L
- MIC [2]: 4 mg/L (≈ 11.8 µM)
- MIC ([3]; Staphylococcus aureus, V41): 2 mg/L (≈ 5.9 µM)
- MIC ([4]; Staphylococcus aureus, X1.1): 4 mg/L (≈ 11.8 µM)
- MIC ([5]; Haemophilus influenzae, 76): 4 mg/L (≈ 11.8 µM)
- MIC ([6]; Staphylococcus epidermidis, 222): 2 mg/L (≈ 5.9 µM)
- MIC ([7]; Staphylococcus epidermidis, EPI1): 2 mg/L (≈ 5.9 µM)
- MIC ([8]; Streptococcus pyogenes, C203): > 64 mg/L
- MIC ([9]; Klebsiella pneumoniae, X26): > 64 mg/L
- MIC ([10]; Streptococcus pneumoniae): > 64 mg/L
- MIC ([11]; Klebsiella pneumoniae): > 64 mg/L
- MIC [12]: 2 mg/L (≈ 5.9 µM)
- MIC (Salmonella sp. X514; Salmonella, SP.X514): > 64 mg/L
- MIC (Proteus morganii PR15; PR15): 32 mg/L (≈ 94.4 µM)
- MIC [13]: 64 mg/L (≈ 189 µM)
- MIC (Candida albicans): 0.312 mg/L (≈ 0.921 µM)
- MIC ([14]; Streptococcus): > 64 mg/L
- MIC [15]: 0.625 mg/L (≈ 1.84 µM)
- MIC (Shigella sonnei N9; Shigella sonnei, N9): > 64 mg/L
- MIC ([16]; Acinetobacter calcoaceticus, AC12): > 64 mg/L
- MIC (Escherichia coli N10; Escherichia coli, N10): 16 mg/L (≈ 47.2 µM)
- MIC (Escherichia coli EC14; Escherichia coli, EC14): 16 mg/L (≈ 47.2 µM)
- MIC ([17]; Haemophilus influenzae): 4 mg/L (≈ 11.8 µM)

SMILES: C=C[C@@]1(C)[C@H](Cl)C[C@H](C(=C)C)[C@@H](c2c[nH]c3ccccc23)[C@H]1N=C=S [Compound 6, Hapalindole F]
- MIC [1, 18]: > 64 mg/L
- MIC (Escherichia coli TEM): > 64 mg/L
- MIC [2]: 32 mg/L (≈ 86.3 µM)
- MIC [3, 19]: > 64 mg/L
- MIC [4, 20]: 16 mg/L (≈ 43.1 µM)
- MIC [5, 21]: > 64 mg/L
- MIC [6, 22]: 4 mg/L (≈ 10.8 µM)
- MIC [7, 23]: 4 mg/L (≈ 10.8 µM)
- MIC [8, 24]: > 64 mg/L
- MIC [9, 25]: > 64 mg/L
- MIC [10, 26]: > 64 mg/L
- MIC [11, 27]: > 64 mg/L
- MIC [12]: 32 mg/L (≈ 86.3 µM)
- MIC (Salmonella sp. X514; [28]): > 64 mg/L
- MIC (Proteus morganii PR15; [29]): > 64 mg/L
- MIC [13, 30]: 64 mg/L (≈ 173 µM)
- MIC (Candida albicans; [31]): > 20 mg/L
- MIC [14, 32]: 16 mg/L (≈ 43.1 µM)
- MIC [15, 31]: > 20 mg/L
- MIC (Shigella sonnei N9; [33]): > 64 mg/L
- MIC [16, 34]: > 64 mg/L
- MIC (Escherichia coli N10; [35]): > 64 mg/L
- MIC (Escherichia coli EC14; [36]): > 64 mg/L
- MIC [17, 37]: > 64 mg/L

SMILES: [C-]#[N+][C@@H]1[C@@H]2c3c[nH]c4cccc(c34)C(C)(C)[C@H]2C[C@@H](Cl)[C@]1(C)C=C [Compound 7, Hapalindole G]
- MIC [1, 18]: > 64 mg/L
- MIC (Escherichia coli TEM): > 64 mg/L
- MIC [2]: 64 mg/L (≈ 189 µM)
- MIC [3, 19]: 64 mg/L (≈ 189 µM)
- MIC [4, 20]: 64 mg/L (≈ 189 µM)
- MIC [5, 21]: 64 mg/L (≈ 189 µM)
- MIC [6, 22]: 16 mg/L (≈ 47.2 µM)
- MIC [7, 23]: 8 mg/L (≈ 23.6 µM)
- MIC [8, 24]: 16 mg/L (≈ 47.2 µM)
- MIC [9, 25]: 64 mg/L (≈ 189 µM)
- MIC [10, 26]: 16 mg/L (≈ 47.2 µM)
- MIC [11, 27]: > 64 mg/L
- MIC [12]: 64 mg/L (≈ 189 µM)
- MIC (Salmonella sp. X514; [28]): > 64 mg/L
- MIC (Proteus morganii PR15; [29]): > 64 mg/L
- MIC [13, 30]: > 64 mg/L
- MIC (Candida albicans; [31]): 10 mg/L (≈ 29.5 µM)
- MIC [14, 32]: > 64 mg/L
- MIC [15, 31]: 2.5 mg/L (≈ 7.38 µM)
- MIC (Shigella sonnei N9; [33]): > 64 mg/L
- MIC [16, 34]: 16 mg/L (≈ 47.2 µM)
- MIC (Escherichia coli N10; [35]): > 64 mg/L
- MIC (Escherichia coli EC14; [36]): > 64 mg/L
- MIC [17, 37]: 64 mg/L (≈ 189 µM)

SMILES: [C-]#[N+][C@@H]1[C@H]2c3c[nH]c4cccc(c34)C(C)(C)[C@@H]2CC[C@]1(C)C=C [Compound 8, Hapalindole H]
- MIC [1, 18]: > 64 mg/L
- MIC (Escherichia coli TEM): > 64 mg/L
- MIC [2]: > 64 mg/L
- MIC [3, 19]: > 64 mg/L
- MIC [4, 20]: > 64 mg/L
- MIC [5, 21]: > 64 mg/L
- MIC [6, 22]: 32 mg/L (≈ 105 µM)
- MIC [7, 23]: 32 mg/L (≈ 105 µM)
- MIC [8, 24]: 32 mg/L (≈ 105 µM)
- MIC [9, 25]: > 64 mg/L
- MIC [10, 26]: 32 mg/L (≈ 105 µM)
- MIC [11, 27]: > 64 mg/L
- MIC [12]: > 64 mg/L
- MIC (Salmonella sp. X514; [28]): > 64 mg/L
- MIC (Proteus morganii PR15; [29]): > 64 mg/L
- MIC [13, 30]: > 64 mg/L
- MIC (Candida albicans; [31]): 10 mg/L (≈ 32.8 µM)
- MIC [14, 32]: > 64 mg/L
- MIC [15, 31]: 1.25 mg/L (≈ 4.11 µM)
- MIC (Shigella sonnei N9; [33]): > 64 mg/L
- MIC [16, 34]: 16 mg/L (≈ 52.6 µM)
- MIC (Escherichia coli N10; [35]): > 64 mg/L
- MIC (Escherichia coli EC14; [36]): > 64 mg/L
- MIC [17, 37]: > 64 mg/L

— US4755610A, “Hapalindoles” (priority 1986, dated 1988)
